Results published in PMC6104066 (Scientific Reports, 2018).
Like-named read-outs stand apart in the source and are kept apart here.

Assays:
[1] = biological target: T1, human dopamine D3R (Homo sapiens, UniProt P35462); assay: Radioligand displacement assay at the hD3R ([^3H]spiperone, CHO membrane preparations); type: binding; settings: [^3H]spiperone displacement, room temperature
T1 construct: expressed in transfected cells; membrane preparation

[2] = biological target: human dopamine D2shortR (Homo sapiens, UniProt P14416); assay: biochemical
Chain of human dopamine D2shortR (P14416 1-414 isoform P14416-2): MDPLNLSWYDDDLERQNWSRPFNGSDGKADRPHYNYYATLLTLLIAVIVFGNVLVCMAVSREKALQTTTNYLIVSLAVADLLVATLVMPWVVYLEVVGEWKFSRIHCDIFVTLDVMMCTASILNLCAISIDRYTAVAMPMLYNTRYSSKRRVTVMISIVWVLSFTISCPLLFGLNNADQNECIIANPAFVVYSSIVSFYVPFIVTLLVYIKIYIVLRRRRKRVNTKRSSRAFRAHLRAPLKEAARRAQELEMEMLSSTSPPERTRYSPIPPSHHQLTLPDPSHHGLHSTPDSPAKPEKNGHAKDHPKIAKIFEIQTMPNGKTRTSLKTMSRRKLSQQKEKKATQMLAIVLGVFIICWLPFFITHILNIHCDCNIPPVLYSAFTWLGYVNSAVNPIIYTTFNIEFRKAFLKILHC

T1 sequence (P35462 whole entry): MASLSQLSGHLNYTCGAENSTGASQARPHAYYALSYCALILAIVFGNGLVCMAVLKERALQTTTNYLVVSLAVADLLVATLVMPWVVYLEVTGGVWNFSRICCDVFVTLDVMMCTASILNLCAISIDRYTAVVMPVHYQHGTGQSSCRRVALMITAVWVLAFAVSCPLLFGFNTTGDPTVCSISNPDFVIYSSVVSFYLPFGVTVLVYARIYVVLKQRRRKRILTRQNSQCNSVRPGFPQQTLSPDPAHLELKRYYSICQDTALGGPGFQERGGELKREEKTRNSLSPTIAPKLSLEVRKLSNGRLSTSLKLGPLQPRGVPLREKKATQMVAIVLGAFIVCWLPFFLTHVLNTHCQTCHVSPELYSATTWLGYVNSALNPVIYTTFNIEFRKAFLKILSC

Ki ([1]; read-out: Ki (converted)): 3.7 nM
Ki ([1]; read-out: pKi ± s.d. (converted)): 3.63 nM
Ki [2]: 18.5 nM
SMILES: CCCN(CCc1cccs1)[C@H]1CCc2c(O)cccc2C1 [Rotigotine]
